Experimental data taken from patent US20240398775A1, “PHARMACEUTICAL COMPOSITION FOR USE IN TREATING COGNITIVE DECLINE OR FOR USE IN TREATING OVERWEIGHT OR OBESITY” (University of the Ryukyus, priority 2021, published 2024).

Assays:
Format in all cases: in vivo, mouse
[1] = test system: dendritic arbors and spines of hippocampus; assay: Golgi staining of hippocampus; details: HFD mice with PER
Excerpt: Coronal sections of mouse brains from Bregma-0.94 mm to Bregma-4.04 mm (5 mm wide, including the entire hippocampus from dorsal to ventral, medial to lateral) were fixed with 4% paraformaldehyde for 2 days, and then stained with the Golgi Cox staining system (FD Rapid GolgiStain™ Kit, MD 21041, USA). The impregnated tissues were cut into 100 μm sections and counterstained with crystal violet, and the total number of 15 μm spines on the apical dendrites of CA1 and DG and the percentage of morphologic spines (thin, stubby, mushroom) were examined using an Axio Observer Z1 (Carl Zeiss, Germany). Another set of paraformaldehyde-fixed 5 mm wide coronal sections of the brain, including the entire hippocampus, were processed using the passive CLARITY technique (PACT) (62) and examined through Lightsheet Z.1 (Carl Zeiss, Germany) using a 10× clear objective lens, and 3D images of Thy1-YFPH transgenic mice (the Jackson Laboratory, stock number: 003709, strain name: B6. Cg-Tg. (Thy1-YFP) 16Jrs/J) (63, 64), HFD-fed mice, and whole hippocampus of the HFD-fed mice with PER treatment. were acquired respectively. Maximum intensity projection images were acquired along the Z dimension, time dimension, and channel dimension to create an output image with the pixel containing the maximum value for all images in the stack at a particular pixel position. With the Z-stack function, a series of XY images at different focus positions can be acquired to create Z-stack. In this manner, a 3D dataset of 400 μm×400 μm was obtained from the specimens, dorsal to lateral and medial to lateral for each of CA1, CA3, and DG.

HFD-fed mice [2] = assay: Five-trial social memory assay; details: PER treatment
Method: Five-trial social tests were performed as previously described (19). In summary, subject mice with CD, HFD, and HFD with PER treatment were housed individually starting 7 days before the study to establish territory dominance. On the day of the test, a female mouse was presented in the cages of subject male mice, which is a subject (FIG. 2G), and 5 min trials were performed 4 times in succession at 10 min intervals. In the fifth trial, a novel female mouse was presented (FIG. 2G) and the duration of the social investigation was recorded.

MAP2, GluA1, GluA2, DCX = assay: Immunohistochemical analysis (MAP2, GluA1, GluA2, DCX) of hippocampus
Excerpt: Mouse brains were perfusion-fixed with 4% paraformaldehyde, embedded in paraffin, and cut into 4 micrometer thick sections to be used for immunohistochemical analysis of monoclonal antibodies against DCX (E-6 monoclonal, 1:50, Santa Cruz Biotechnology Inc, Dallas, USA), MAP2ab (AP-20 monoclonal, 1:100, SIGMA-ALDRICH, St. Louis, USA), GluA1 ([…] polyclonal, 1:100, EMD Millipore Corp., Burlington, USA), and GluA2 (AB 1768-1 polyclonal, 1:5, EMD Millipore Corp., Burlington, USA).
The immunostained region in each of the expression regions of MAP2, GluA1, and GluA2 was acquired using a ZVI format AxioVision (Carl Zeiss, Germany) microscope (objective lens 20×). Generation of data image processing with image segmentation was performed using machine learning with ZEN Intelliesis software. 1000 or more cells were examined in each group. One-way variance analysis was used for testing variance among the three groups excluding data of 3SD or higher. Then, the following number of samples was used.

Aβ = Aβ accumulation in hippocampus and cerebral cortex of NL-G-F(−/−) mice; details: perampanel 5 mg/kg from 6 to 15 weeks of age
Excerpt: The effect of perampanel administration on Aβ accumulation in the hippocampal dentate gyrus (DG) CA1 and the cerebral cortex (Cx) in the Alzheimer's dementia model mouse (NL-G-F(−/−)) is shown. The X axis indicates the intensity of fluorescence, and the Y axis indicates the fluorescence count.

HFD-fed mice [3] = assay: Morris water maze pattern completion test; details: PER administration
Method: The Morris water maze task was performed as previously described using mice with CD, HFD, and HFD with PER treatment (49). All experiments were performed at approximately the same time of day. Mice were transported from the colony to the holding area and kept undisturbed for 30 minutes prior to the experiment. The tests were performed in a rectangular dimly lit room with a circular pool (Muromachi Kikai Co., Ltd., Tokyo, Japan) of 120 cm diameter filled with opaque water with skim milk (Morinaga, Japan) kept at room temperature. Four large objects illuminated by floor lamps were hung on the black curtains surrounding the pool as cues outside the maze. A hidden circular platform with a diameter of 10 cm was placed 1 cm below the surface of the water and the mice were trained to find the platform 4 times per day at intervals of approximately 60 minutes for 12 days. During training, the mice were released from 4 start points (N, S, E, and W) assigned in a pseudo-random manner and allowed to swim for 300 seconds.
On the thirteenth day, a probe trial was performed under the condition of full-cue (P1). […] Training and probe trial data were collected and analyzed using CompACT VAS/DV video tracking system software. The escape latency to the hidden platform (goal reaching time) was measured.

With `N#Cc1ccccc1-c1cc(-c2ccccn2)cn(-c2ccccc2)c1=O` [PER, 3-(2-cyanophenyl)-5-(2-pyridyl)-1-phenyl-1,2-dihydropyridine-2-one] the “Golgi staining positive cells in DG” value [1] was “restored”, the “integrity of dendritic arbors in CA1 (Golgi staining)” value [1] was “restored” and the “spine maturation in DG” value [1] was “immature spines became mature”. For the same compound, the social memory (HFD-fed mice [2]) was “restored social memory disturbance”, the “integrity of dendritic arbors in CA1 (anti-MAP2 antibody staining)” value (MAP2, GluA1, GluA2, DCX; HFD mice with PER) was “completely restored” and the “GluA2/GluA1 ratio (immunostaining)” value (MAP2, GluA1, GluA2, DCX; HFD mice with PER treatment) was “increased”. For the same compound, the “immunostaining reaction of GluA1 in CA1” value (MAP2, GluA1, GluA2, DCX; HFD mice with PER treatment) was “decreased”, the “double cortin positive cells” value (MAP2, GluA1, GluA2, DCX; HFD mice with PER, DG) was “increase” and the “GluA1 expression in CA1 (immunoreactive region)” value (MAP2, GluA1, GluA2, DCX; ob/ob mice with PER) was “restored”. The “ratio of GluA2/GluA1 (immunoreactive region)” value (MAP2, GluA1, GluA2, DCX; ob/ob mice with PER) was “restored”, the “integrity of the dendritic arbors (MAP2 staining)” value (MAP2, GluA1, GluA2, DCX; ob/ob mice, PER for 1 week or 12 weeks) was “significantly more restored by 12 week administration than by 1 week administration” and the “maturation of the protrusions of DCX-positive cells” value (MAP2, GluA1, GluA2, DCX; ob/ob mice, PER for 12 weeks) was “progressed”. For the same compound, the “Aβ accumulation in DG, CA1 and cerebral cortex” value (Aβ) was “decrease in Aβ accumulation” and the pattern completion ability (HFD-fed mice [3]) was “restored”.
